In patent publication US10219516B2, “Molecules having pesticidal utility, and intermediates, compositions, and processes, related thereto” (priority 2015, dated 2019):

Key:
Type in all cases: in vivo
[1] = tested on: Beet Armyworm (Spodoptera exigua, LAPHEG); assay: Bioassay on Beet Armyworm (BAW), 128-well diet tray assay; conditions: Species BAW (Beet Armyworm), read-out: BAW (Biological Results, rating)
Summary of the method: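 Test molecule dissolved in acetone-water 90:10 is applied at 50 μg/cm^2 onto artificial diet and allowed to dry. Second instar larvae, one to five per well, are then added, and trays are vented and kept at 25° C. for five to seven days before mortality is scored.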

[2] = tested on: Cabbage Looper (Trichoplusia ni, TRIPNI); assay: Bioassay on Cabbage Looper (CL), 128-well diet tray assay; conditions: Trichoplusia ni; Species CL (Cabbage Looper); read-out: CL (Biological Results, rating)
Summary of the method: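 Second-instar larvae, one to five per well, were placed on artificial diet surface-treated with 50 μg/cm^2 test molecule applied in 90:10 acetone-water and dried, eight wells per molecule. Trays were covered, vented and held at 25° C., 14:10 light-dark for five to seven days; percent mortality per well was averaged.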

[3] = tested on: Green Peach Aphid (Myzus persicae, MYZUPE); assay: Bioassay on Green Peach Aphid (GPA), foliar spray on infested cabbage seedlings; conditions: foliar, 72 h, Species GPA (Green Peach Aphid), read-out: GPA (Biological Results, rating)
Summary of the method: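 Cabbage seedlings (2-3 true leaves) infested with 20-50 wingless adult and nymph aphids one day before treatment; sprayed to runoff at 200 ppm in 0.025% Tween 20 water with 20% acetone/methanol, four pots per treatment. Held three days at about 25° C; live aphids counted, % control by Abbott's correction versus solvent check.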

[4] = tested on: Yellow Fever Mosquito (Aedes aegypti, AEDSAE); assay: Bioassay on Yellow Fever Mosquito (YFM), 96-well plate larval assay; conditions: Species YFM (Yellow Fever Mosquito)
Summary of the method: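 Compound stocks at 4000 ppm in DMSO were diluted with 90:10 water/acetone, and 15 μL aliquots were dispensed into six replicate plates. About 1-day-old larvae in liver-powder water were added per well. Plates were covered and held at room temperature for 3 days before each well was scored for mortality.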

Structure (SMILES) | pest or weed control at 50 µg/cm2 [1] [%] | pest or weed control at 50 µg/cm2 [2] [%] | pest or weed control at 200 µg/mL [3] [%] | YFM (Biological Results, rating) [4]
CC(C)c1ccccc1NC(=O)c1cc(NC(=O)[C@H]2[C@H](c3cc(Cl)cc(Cl)c3)C2(Cl)Cl)ccc1Cl (relative stereo) [F41, trans-2-Chloro-5-(2,2-dichloro-3-(3,5-dichlorophenyl)cyclopropane-1-carboxamido)-N-(2-isopropylphenyl)benzamide] | 50 to 100 | 50 to 100 | 0 to 80 | A (80-100)
CCc1cccc(C)c1NC(=O)c1cc(NC(=O)[C@H]2[C@H](c3cc(Cl)cc(Cl)c3)C2(Cl)Cl)ccc1Cl (relative stereo) [F42, trans-2-Chloro-5-(2,2-dichloro-3-(3,5-dichlorophenyl)cyclopropane-1-carboxamido)-N-(2-ethyl-6-methylphenyl)benzamide] | 50 to 100 | 50 to 100 | 0 to 80 | A (80-100)
CN(C(=O)c1cc(NC(=O)[C@H]2[C@H](c3cc(Cl)cc(Cl)c3)C2(Cl)Cl)ccc1Cl)c1ccc(F)cc1F (relative stereo) [F44, trans-2-Chloro-5-(2,2-dichloro-3-(3,5-dichlorophenyl)cyclopropane-1-carboxamido)-N-(2,4-difluorophenyl)-N-methylbenzamide] | 50 to 100 | 50 to 100 | 80 to 100 | A (80-100)
CN(C(=O)c1cc(NC(=O)[C@H]2[C@H](c3cc(Cl)cc(Cl)c3)C2(Cl)Cl)ccc1F)c1cccc(F)c1 (relative stereo) [F46, trans-5-(2,2-Dichloro-3-(3,5-dichlorophenyl)cyclopropane-1-carboxamido)-2-fluoro-N-(3-fluorophenyl)-N-methylbenzamide] | 50 to 100 | 50 to 100 | 0 to 80 | A (80-100)
CN(C(=O)c1cccc(NC(=O)[C@H]2[C@H](c3cc(Cl)cc(Cl)c3)C2(Cl)Cl)c1F)c1ccc(F)cc1 (relative stereo) [F47, trans-3-(2,2-Dichloro-3-(3,5-dichlorophenyl)cyclopropane-1-carboxamido)-2-fluoro-N-(4-fluorophenyl)-N-methylbenzamide] | 50 to 100 | 50 to 100 | 0 to 80 | B (More than 0-Less than 80)
O=C(Nc1cccc(F)c1)c1cc(NC(=O)[C@H]2[C@H](c3cc(Cl)c(Cl)c(Cl)c3)C2(Cl)Cl)ccc1Cl (relative stereo) [F50, trans-2-Chloro-5-(2,2-dichloro-3-(3,4,5-trichlorophenyl)cyclopropane-1-carboxamido)-N-(3-fluorophenyl)benzamide] | 50 to 100 | 50 to 100 | 0 to 80 | A (80-100)
O=C(Nc1cccc(F)c1)c1cc(NC(=O)[C@H]2[C@H](c3ccc(Cl)c(Cl)c3)C2(Cl)Cl)ccc1Cl (relative stereo) [F51, trans-2-Chloro-5-(2,2-dichloro-3-(3,4-dichlorophenyl)cyclopropane-1-carboxamido)-N-(3-fluorophenyl)benzamide] | 50 to 100 | 50 to 100 | 80 to 100 | A (80-100)
CN(C(=O)c1cc(NC(=O)[C@H]2[C@H](c3cc(Cl)c(Cl)c(Cl)c3)C2(Cl)Cl)ccc1Cl)c1ccc(F)cc1 (relative stereo) [F52, trans-2-Chloro-5-(2,2-dichloro-3-(3,4,5-trichlorophenyl)cyclopropane-1-carboxamido)-N-(4-fluorophenyl)-N-methylbenzamide] | 50 to 100 | 50 to 100 | 80 to 100 | A (80-100)
CN(C(=O)c1cc(NC(=O)[C@H]2[C@H](c3ccc(Cl)c(Cl)c3)C2(Cl)Cl)ccc1Cl)c1ccc(F)cc1 (relative stereo) [F53, trans-2-Chloro-5-(2,2-dichloro-3-(3,4-dichlorophenyl)cyclopropane-1-carboxamido)-N-(4-fluorophenyl)-N-methylbenzamide] | 50 to 100 | 50 to 100 | 80 to 100 | A (80-100)
Cc1cc(C#N)ccc1NC(=O)c1cc(NC(=O)[C@H]2[C@H](c3cc(Cl)c(Cl)c(Cl)c3)C2(Cl)Cl)ccc1Cl (relative stereo) [F54, trans-2-Chloro-N-(4-cyano-2-methylphenyl)-5-(2,2-dichloro-3-(3,4,5-trichlorophenyl)cyclopropane-1-carboxamido)benzamide] | 50 to 100 | 50 to 100 | 0 to 80 | A (80-100)
Cc1cc(C#N)ccc1NC(=O)c1cc(NC(=O)[C@H]2[C@H](c3ccc(Cl)c(Cl)c3)C2(Cl)Cl)ccc1Cl (relative stereo) [F55, trans-2-Chloro-N-(4-cyano-2-methylphenyl)-5-(2,2-dichloro-3-(3,4-dichlorophenyl)cyclopropane-1-carboxamido)benzamide] | 50 to 100 | 50 to 100 | 80 to 100 | A (80-100)
CN(C(=O)c1cc(NC(=O)[C@H]2[C@H](c3ccc(Cl)c(Cl)c3)C2(Cl)Cl)ccc1F)c1ccc(F)cc1F (relative stereo) [F64, trans-5-(2,2-Dichloro-3-(3,4-dichlorophenyl)cyclopropane-1-carboxamido)-N-(2,4-difluorophenyl)-2-fluoro-N-methylbenzamide] | 50 to 100 | 50 to 100 | 80 to 100 | B (More than 0-Less than 80)
O=C(Nc1ccc(F)cn1)c1cc(NC(=O)[C@H]2[C@H](c3cc(Cl)cc(Cl)c3)C2(Cl)Cl)ccc1Cl (relative stereo) [F76, trans-2-Chloro-5-(2,2-dichloro-3-(3,5-dichlorophenyl)cyclopropane-1-carboxamido)-N-(5-fluoropyridin-2-yl)benzamide] | 50 to 100 | 50 to 100 | 80 to 100 | B (More than 0-Less than 80)
CNC(=O)c1ccc(NC(=O)c2cc(NC(=O)[C@H]3[C@H](c4cc(Cl)cc(Cl)c4)C3(Cl)Cl)ccc2Cl)cn1 (relative stereo) [F77, trans-5-(2-Chloro-5-(2,2-dichloro-3-(3,5-dichlorophenyl)cyclopropane-1-carboxamido)benzamido)-N-methylpicolinamide] | 50 to 100 | 50 to 100 | 80 to 100 | A (80-100)
O=C(Nc1ccc(F)cc1)c1cc(NC(=O)[C@H]2[C@H](c3ccc(OC(F)(F)F)c(Cl)c3)C2(Cl)Cl)ccc1Cl (relative stereo) [F79, trans-2-Chloro-5-(2,2-dichloro-3-(3-chloro-4-(trifluoromethoxy)phenyl)cyclopropane-1-carboxamido)-N-(4-fluorophenyl)benzamide] | 50 to 100 | 50 to 100 | 80 to 100 | B (More than 0-Less than 80)
CN(C(=O)c1cc(NC(=O)[C@H]2[C@H](c3ccc(OC(F)(F)F)c(Cl)c3)C2(Cl)Cl)ccc1Cl)c1ccc(F)cc1 (relative stereo) [F80, trans-2-Chloro-5-(2,2-dichloro-3-(3-chloro-4-(trifluoromethoxy)phenyl)cyclopropane-1-carboxamido)-N-(4-fluorophenyl)-N-methylbenzamide] | 50 to 100 | 50 to 100 | 80 to 100 | A (80-100)
O=C(Nc1ccc(F)cc1)c1cc(NC(=O)[C@H]2[C@H](c3cc(Cl)cc(C(F)(F)F)c3)C2(Cl)Cl)ccc1Cl (relative stereo) [F87, trans-2-Chloro-5-(2,2-dichloro-3-(3-chloro-5-(trifluoromethyl)phenyl)cyclopropane-1-carboxamido)-N-(4-fluorophenyl)benzamide] | 50 to 100 | 50 to 100 | 80 to 100 | A (80-100)
CCN(C(=O)c1cc(NC(=O)[C@H]2[C@H](c3cc(Cl)cc(Cl)c3)C2(Cl)Cl)ccc1Cl)c1ccc(F)cc1 (relative stereo) [F99, trans-2-Chloro-5-(2,2-dichloro-3-(3,5-dichlorophenyl)cyclopropane-1-carboxamido)-N-ethyl-N-(4-fluorophenyl)benzamide] | 50 to 100 | 50 to 100 | 80 to 100 | B (More than 0-Less than 80)
